Here are results for six compounds from patent US20260184663A1, “INDENE COMPOUNDS, PHARMACEUTICAL COMPOSITIONS THEREOF, AND THEIR THERAPEUTIC APPLICATIONS” (NucMito Pharmaceuticals co. Ltd., priority 2022, published 2026).

Assay type in all cases: cell-based
The subject of one experiment is SW480 (colon cancer). Nature of the experiment: Antiproliferative activity (CCK-8 cell viability), SW480. The note with it: Homo sapiens, 72 h, read-out: Antiproliferative activity in cancerous cells, SW480 (inhibition of cell growth); for inhibition at 3.3 µM: Compound concentration: 3.3 μM; for inhibition at 10 µM: Compound concentration: 10 μM; for inhibition at 30 µM: Compound concentration: 30 μM. The gist of the method: (§1)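 Cells were seeded at 2,000-5,000/well (HeLa in MEM, HepG2 and SW480 in DMEM, A549 in F-12K, all with 10% FBS) and treated with compound at 3.3, 10 or 30 μM for 72 h at 37° C. CCK-8 was added for 4 h, absorbance was read at 450 nm, and viability was expressed relative to DMSO-treated wells.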

Experiment [1] concerns A549 (lung adenocarcinoma). Briefly: Antiproliferative activity (CCK-8 cell viability), A549. The settings on record: Homo sapiens, 72 h, read-out: Antiproliferative activity in cancerous cells, A549 (inhibition of cell growth); for inhibition at 3.3 µM: Compound concentration: 3.3 μM; for inhibition at 10 µM: Compound concentration: 10 μM; for inhibition at 30 µM: Compound concentration: 30 μM. The gist of the method: as §1

For experiment [2], the system named is B16F10 (malignant melanoma). Briefly: Antiproliferative activity (CCK-8 cell viability), B16F10. The settings on record: Mus musculus, 72 h, read-out: Antiproliferative activity in cancerous cells, B16F10 (inhibition of cell growth); for inhibition at 3.3 µM: B16-F10, Compound concentration: 3.3 μM; for inhibition at 10 µM: B16-F10, Compound concentration: 10 μM; for inhibition at 30 µM: B16-F10, Compound concentration: 30 μM. The gist of the method: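 Attached B16F10 cells in 96-well plates were incubated with compound at 37° C for 72 h, followed by 10 μL CCK-8 reagent per well and a further 4 h incubation. A multi-well plate reader measured absorbance at 450 nm. Percent viability across replicates was calculated against DMSO vehicle-treated cells.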

The next experiment relates to HeLa (cervical cancer). Nature of the experiment: Antiproliferative activity (CCK-8 cell viability), HeLa. The note with it: Homo sapiens, 72 h, read-out: Antiproliferative activity in cancerous cells, HELA (inhibition of cell growth); for inhibition at 3.3 µM: Compound concentration: 3.3 μM; for inhibition at 10 µM: Compound concentration: 10 μM; for inhibition at 30 µM: Compound concentration: 30 μM. An outline of the steps:
as §1

For experiment [3], the system named is A431 (epidermoid carcinoma). Nature of the experiment: Antiproliferative activity (CCK-8 cell viability), A431. The settings on record: Homo sapiens, 72 h, read-out: Antiproliferative activity in cancerous cells, A431 (inhibition of cell growth); for inhibition at 3.3 µM: A-431, Compound concentration: 3.3 μM; for inhibition at 10 µM: A-431, Compound concentration: 10 μM; for inhibition at 30 µM: A-431, Compound concentration: 30 μM. The gist of the method: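 Cell viability of compound-treated A431 cells was measured with a Cell Counting Kit-8. Each well received 10 μL of CCK-8 after 72 h of compound exposure, followed by 4 h incubation at 37° C. and a 450 nm plate-reader measurement. Percent viability was calculated relative to DMSO controls across replicates.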

Experiment [4] has as its system MDA-MB-231 (breast cancer). Briefly: Antiproliferative activity (CCK-8 cell viability), MDA-MB-231. The note with it: Homo sapiens, 72 h, read-out: Antiproliferative activity in cancerous cells, MDA-MB-231 (inhibition of cell growth); for inhibition at 3.3 µM: Compound concentration: 3.3 μM; for inhibition at 10 µM: Compound concentration: 10 μM; for inhibition at 30 µM: Compound concentration: 30 μM. An outline of the steps: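 In this CCK-8 viability assay, MDA-MB-231 cells maintained in Dulbecco's modified Eagle's medium containing 10% fetal bovine serum were placed in 96-well plates (2,000-5,000 cells/well) and treated with compound for 72 h at 37° C. A 4 h incubation with 10 μL CCK-8 followed, plates were read at 450 nm, and viability was expressed against DMSO vehicle wells across replicates.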

The next experiment deals with HepG2 (liver cancer). Nature of the experiment: Antiproliferative activity (CCK-8 cell viability), HepG2. The settings on record: Homo sapiens, 72 h, read-out: Antiproliferative activity in cancerous cells, HepG2 (inhibition of cell growth); for inhibition at 3.3 µM: Compound concentration: 3.3 μM; for inhibition at 10 µM: Compound concentration: 10 μM; for inhibition at 30 µM: Compound concentration: 30 μM. The gist of the method: as §1

The term inhibition denotes the share of the control response that was lost under treatment. As to `CC1=C(CC(=O)O)c2cc(F)ccc2/C1=C/c1ccc(Oc2ccc(Cl)cc2F)cc1` [E24, (E)-2-(1-(4-(4-Chloro-2-Fluorophenoxy)benzylidene)-5-fluoro-2-methyl-1H-inden-3-yl)acetic acid], the inhibition at 3.3 µM in the experiment on SW480 (colon cancer) was < 30%; in experiment [1], < 30%; in experiment [2] it was ≥ 50%; in the experiment on HeLa (cervical cancer), < 30%; in experiment [3] it was ≥ 50%; in experiment [4] it was ≥ 50%. In addition, the inhibition at 3.3 µM in the experiment on HepG2 (liver cancer) was < 30%. Moreover, the inhibition at 10 µM in the experiment on SW480 (colon cancer) was ≥ 50%; in experiment [1], 30 to 50%; in experiment [2] it was ≥ 50%; in the experiment on HeLa (cervical cancer), ≥ 50%; in experiment [3], ≥ 50%; in experiment [4], ≥ 50%. In addition, the inhibition at 10 µM with HepG2 (liver cancer) is ≥ 50%. In addition, the inhibition at 30 µM (in the experiment with SW480 (colon cancer); in experiment [1]; in experiment [2]; in the experiment with HeLa (cervical cancer); in experiment [3]; in experiment [4]) was ≥ 50% in each case. Besides, the inhibition at 30 µM in the experiment on HepG2 (liver cancer) is ≥ 50%.

As for `CC1=C(CC(=O)O)c2cc(F)ccc2/C1=C\c1cccc(OC2CCC(F)(F)CC2)c1` [C206, (Z)-2-(1-(3-((4,4-Difluorocyclohexyl)oxy)benzylidene)-5-fluoro-2-methyl-1H-inden-3-yl)acetic acid], the inhibition at 3.3 µM in the experiment on SW480 (colon cancer) was 30 to 50%; in experiment [1], < 30%; in experiment [2], ≥ 50%; in the experiment with HeLa (cervical cancer) it was < 30%; in experiment [3], 30 to 50%; in experiment [4], ≥ 50%. Besides, the inhibition at 3.3 µM with HepG2 (liver cancer) was < 30%. Moreover, the inhibition at 10 µM with SW480 (colon cancer) was ≥ 50%; in experiment [1], ≥ 50%; in experiment [2], ≥ 50%; with HeLa (cervical cancer) it was ≥ 50%; in experiment [3], 30 to 50%; in experiment [4], ≥ 50%. In the experiment on HepG2 (liver cancer), the inhibition at 10 µM is ≥ 50%. Further, the inhibition at 30 µM (with SW480 (colon cancer); in experiment [1]; in experiment [2]; in the experiment with HeLa (cervical cancer); in experiment [3]; in experiment [4]) was ≥ 50% each time. Further, the inhibition at 30 µM with HepG2 (liver cancer) was ≥ 50%.

Consider `COc1ccc(Oc2cccc(/C=C3/C(C)=C(CC(=O)O)c4cc(Cl)ccc43)c2)cc1` [C92, (Z)-2-(5-Chloro-1-(3-(4-methoxyphenoxy)benzylidene)-2-methyl-1H-inden-3-yl)acetic acid], for which the inhibition at 3.3 µM in the experiment with SW480 (colon cancer) was ≥ 50%; in experiment [1] it was < 30%; in experiment [2] it was < 30%; with HeLa (cervical cancer), ≥ 50%; in experiment [3], ≥ 50%; in experiment [4], < 30%. Also, the inhibition at 3.3 µM in the experiment with HepG2 (liver cancer) was ≥ 50%. The inhibition at 10 µM with SW480 (colon cancer) was ≥ 50%; in experiment [1], ≥ 50%; in experiment [2], < 30%; in the experiment on HeLa (cervical cancer), ≥ 50%; in experiment [3], ≥ 50%; in experiment [4] it was < 30%. Further, the inhibition at 10 µM in the experiment with HepG2 (liver cancer) was ≥ 50%.

As to `CC1=C(CC(=O)O)c2c(F)ccc(F)c2/C1=C\c1ccc(C(C)C)cc1` [D4, (Z)-2-(4,7-Difluoro-1-(4-isopropylbenzylidene)-2-methyl-1H-inden-3-yl)acetic acid], the inhibition at 3.3 µM with SW480 (colon cancer) was < 30%; in experiment [1], < 30%; in experiment [2] it was 30 to 50%; in the experiment on HeLa (cervical cancer), ≥ 50%; in experiment [3], < 30%; in experiment [4], 30 to 50%. For the same compound, the inhibition at 3.3 µM in the experiment with HepG2 (liver cancer) is < 30%. Moreover, the inhibition at 10 µM with SW480 (colon cancer) is < 30%; in experiment [1] it was 30 to 50%; in experiment [2], ≥ 50%; in the experiment on HeLa (cervical cancer), ≥ 50%; in experiment [3], < 30%; in experiment [4], 30 to 50%. Also, the inhibition at 10 µM in the experiment on HepG2 (liver cancer) was < 30%. The inhibition at 30 µM (in the experiment with SW480 (colon cancer); in experiment [1]; in experiment [2]; with HeLa (cervical cancer); in experiment [3]; in experiment [4]) was ≥ 50% throughout. In the experiment on HepG2 (liver cancer), the inhibition at 30 µM is ≥ 50%.

Take `CC1=C(CC(=O)O)c2cc(F)ccc2/C1=C\c1ccc(C2(c3ccccc3)SCCS2)cc1` [C353, (Z)-2-(5-Fluoro-2-methyl-1-(4-(2-phenyl-1,3-dithiolan-2-yl)benzylidene)-1H-inden-3-yl)acetic acid]: the inhibition at 3.3 µM in the experiment on SW480 (colon cancer) is ≥ 50%; in experiment [1], < 30%; in experiment [2], < 30%; with HeLa (cervical cancer) it was ≥ 50%; in experiment [3], ≥ 50%; in experiment [4], ≥ 50%. The inhibition at 3.3 µM with HepG2 (liver cancer) is ≥ 50%. Besides, the inhibition at 10 µM (in the experiment with SW480 (colon cancer); in experiment [1]; in experiment [2]; with HeLa (cervical cancer); in experiment [3]; in experiment [4]) was ≥ 50% throughout. Besides, the inhibition at 10 µM in the experiment on HepG2 (liver cancer) was ≥ 50%. For the same compound, the inhibition at 30 µM (in the experiment with SW480 (colon cancer); in experiment [1]; in experiment [2]; in the experiment on HeLa (cervical cancer); in experiment [3]; in experiment [4]) was ≥ 50% throughout. For the same compound, the inhibition at 30 µM in the experiment on HepG2 (liver cancer) is ≥ 50%.

For the compound `CCc1ccc2c(c1)C(CC(=O)O)=C(C)/C2=C/c1ccc(COc2ccc(C(F)(F)F)cc2)cc1` [B60, (Z)-2-(5-Ethyl-2-methyl-1-(4-((4-(trifluoromethyl)phenoxy)methyl)benzylidene)-1H-inden-3-yl)acetic acid], the inhibition at 3.3 µM with SW480 (colon cancer) was < 30%; in experiment [1] it was 30 to 50%; in experiment [2] it was 30 to 50%; in the experiment with HeLa (cervical cancer), 30 to 50%; in experiment [3] it was ≥ 50%; in experiment [4], < 30%. Moreover, the inhibition at 3.3 µM in the experiment with HepG2 (liver cancer) is ≥ 50%. The inhibition at 10 µM with SW480 (colon cancer) was ≥ 50%; in experiment [1] it was ≥ 50%; in experiment [2] it was ≥ 50%; in the experiment on HeLa (cervical cancer), ≥ 50%; in experiment [3], ≥ 50%; in experiment [4], < 30%. In the experiment with HepG2 (liver cancer), the inhibition at 10 µM is ≥ 50%.
